Test results from article PMC3983391 (Journal of medicinal chemistry, 2014).
Entries after “also recorded” stand apart in the source; their conditions may differ.

Legend:
[1] = Toxicity in the nude mouse MCF7 xenograft study; settings: nude mice; for death: dead/total
[2] = data reported previously; cited from earlier work
[3] = test system: human tumor cell line (HTCL) panel (A549, KB, KBvin, DU145); assay: SRB antiproliferative activity, ranges over the HTCL panel; type: cell-based; settings: read-out: GI50 range over HTCL panel
A549 cells [4] = assay: Immunocytochemistry of cellular microtubules; type: cell-based, human; settings: A549, 24 h; 5f 3 nM, paclitaxel 100 nM, colchicine 100 nM
[5] = test system: tubulin (vinblastine site); assay: Competitive inhibition assay, BODIPY FL-vinblastine binding to tubulin; design: species or system dog; settings: tubulin 4 μM, BODIPY FL-vinblastine 2 μM; even at 30–100 μM
A549 cells [6] = assay: Cell cycle analysis by propidium iodide flow cytometry; type: cell-based, human; settings: A549, 24 h; 5f 3 nM, colchicine 300 nM
MCF7 tumor xenografts = assay: Nude mouse MCF7 xenograft antitumor assay; type: in vivo; settings: 4 mg/kg i.v. every 3 days; p < 0.05 from day 10 onward

Structure (SMILES): COc1ccc2c(c1)CCCN2c1nc(Cl)nc2ccccc12 [1a, 2-chloro-4-(6-methoxy-3,4-dihydroquinolin-1(2H)-yl)quinazoline]
- death ([1]; 4 mg/kg i.v., Q3D × 6): 0/5

Structure (SMILES): COc1ccc2c(c1)CCCN2c1nc(C)nc2ccccc12 [1b, 2-methyl-4-(6-methoxy-3,4-dihydroquinolin-1(2H)-yl)quinazoline]
- human liver microsome t1/2 [2]: 25.2 min
- death ([1]; 4 mg/kg i.v., Q3D × 6): 1/6

Structure (SMILES): Cc1ccc2c(c1)CCCN2c1nc(Cl)nc2ccccc12 [4a, 2-Chloro-4-(N-(6-methyl-3,4-dihydroquinolinyl))quinazoline]
- GI50 [3]: 43 to 57 nM

Structure (SMILES): Cc1ccc2c(c1)CCCN2c1nc(C)nc2ccccc12 [4b, 2-Methyl-4-(N-(6-methyl-1,2,3,4-tetrahydroquinolinyl))-quinazoline]
- GI50 [3]: 169 to 211 nM

Structure (SMILES): Cc1nc(N2CCCc3cc(Br)ccc32)c2ccccc2n1 [4c, 4-(N-(6-Bromo-1,2,3,4-tetrahydroquinolinyl))-2-methylqui-nazoline]
- GI50 [3]: 169 to 211 nM

Structure (SMILES): COc1ccc2c(c1)C(=O)CCN2c1nc(Cl)nc2ccccc12 [5a, 2-Chloro-4-(N-(6-methoxy-2,3-dihydro-4-oxoquinolinyl))-quinazoline]
- GI50 [3]: 27 to 33 nM

Structure (SMILES): COc1ccc2c(c1)C(=O)CCN2c1nc(C)nc2ccccc12 [5b, 4-(N-(6-Methoxy-2,3-dihydro-4-oxoquinolinyl))-2-methyl-quinazoline]
- GI50 [3]: 19 to 24 nM

Structure (SMILES): COc1ccc2c(c1)C(O)CCN2c1nc(C)nc2ccccc12 (centres unmarked) [5c, 4-(N-(4-Hydroxy-6-methoxy-1,2,3,4-tetrahydroquinolinyl))-2-methylquinazoline]
- GI50 [3]: 17 to 19 nM

Structure (SMILES): COc1ccc2c(c1)OCCN2c1nc(Cl)nc2ccccc12 [5d, 2-Chloro-4-(N-(7-methoxy-3,4-dihydro-2H-benzo[b][1,4]-oxazinyl))quinazoline]
- GI50 [3]: 153 to 211 nM

Structure (SMILES): COc1ccc2c(c1)OCCN2c1nc(C)nc2ccccc12 [5e]
- GI50 [3]: 153 to 211 nM

Structure (SMILES): COc1ccc2c(c1)NC(=O)CN2c1nc(C)nc2ccccc12 [5f, 2-Methyl-4-(7-methoxy-2-oxo-3,4-dihydroquinoxalin-4(1H)-yl)quinazoline]
- GI50 [3]: 1.9 to 3.2 nM
- effect on cellular microtubule network (A549 cells [4]): microtubule network disappeared
- effect on binding of BODIPY FL-vinblastine to tubulin [5]: did not significantly change; also recorded: did not compete
- effect on the cell cycle (A549 cells [6]): arrested at the G2/M phase
- toxicity observation ([1]; 4 mg/kg i.v. every 3 days, 4 mg/kg): toxicity and death; also recorded: all seven mice died; also recorded: death of all treated mice
- death ([1]; 4 mg/kg i.v., Q3D × 6): 7/7

Structure (SMILES): COc1ccc2c(c1)N(C)C(=O)CN2c1nc(C)nc2ccccc12 [5g, 2-Methyl-4-(1-methyl-7-methoxy-2-oxo-3,4-dihydroquinox-alin-4-yl)quinazoline]
- GI50 [3]: 17 to 25 nM
- growth of MCF7 tumor xenografts (tumor volume vs control) (MCF7 tumor xenografts): significantly inhibited
- body weight change (%) ([1]; 4 mg/kg i.v., Q3D × 6): +2.28%
- death ([1]; 4 mg/kg i.v., Q3D × 6): 0/7

Structure (SMILES): COc1ccc2c(c1)CCN2c1nc(Cl)nc2ccccc12 [5h, 2-Chloro-4-(N-(5-methoxy)indolinyl)quinazoline]
- GI50 [3]: 170 to 320 nM

Structure (SMILES): COc1ccc2c(c1)CCN2c1nc(C)nc2ccccc12 [5i, 4-(N-(5-Methoxy)indolinyl)-2-methylquinazoline]
- GI50 [3]: 170 to 320 nM

Structure (SMILES): COc1ccc2c(c1)CCCCN2c1nc(C)nc2ccccc12 [5k, 4-(N-(7-Methoxy-2,3,4,5-tetrahydro-1H-benzo[b]azepinyl))-2-methylquinazoline]
- GI50 [3]: 18 to 21 nM

Structure (SMILES): COc1ccc2c(c1)CCCN(c1nc(Cl)nc3ccccc13)C2 [5l, 2-Chloro-4-(N-(7-methoxy-2,3,4,5-tetrahydro-1H-benzo[c]-azepinyl))quinazoline]
- GI50 [3]: 5450 to 19600 nM

Structure (SMILES): COc1ccc2c(c1)CCCN(c1nc(C)nc3ccccc13)C2 [5m, 4-(N-(7-Methoxy-2,3,4,5-tetrahydro-1H-benzo[c]azepinyl))-2-methylquinazoline]
- GI50 [3]: 5450 to 19600 nM

Structure (SMILES): COc1cc2c(c(OC)c1OC)-c1ccc(OC)c(=O)cc1[C@@H](NC(C)=O)CC2 [colchicine, reference compound]
- effect on cellular microtubule network (A549 cells [4]): microtubule network disappeared
- effect on the cell cycle (A549 cells [6]): arrested at the G2/M phase

Structure (SMILES): CC(=O)O[C@H]1C(=O)[C@@]2(C)[C@H]([C@H](OC(=O)c3ccccc3)[C@]3(O)C[C@H](OC(=O)[C@H](O)[C@@H](NC(=O)c4ccccc4)c4ccccc4)C(C)=C1C3(C)C)[C@]1(OC(C)=O)CO[C@@H]1C[C@@H]2O [paclitaxel]
- effect on cellular microtubule network (A549 cells [4]): retained a spindle-shaped microtubule network
